# Source: publication PMC8480776, “Selenium Derivatives as Promising Therapy for Chagas Disease: In Vitro and In Vivo Studies” (ACS Infectious Diseases, 2021)
# How the values were obtained:
# [1] = test system: T. cruzi epimastigotes, SN3 strain; assay: Screening against extracellular epimastigotes, SN3 strain; type: cell-based, Trypanosoma cruzi; details: for IC50: Trypanosoma cruzi, 48 h + 24 h resazurin, read-out: Activity IC50, epimastigote form, SN3 strain; for Selectivity index (SI), epimastigotes, SN3 strain: IC50 Vero cells/IC50 epimastigotes
# [2] = test system: T. cruzi epimastigotes, Tulahuen strain; assay: Screening against extracellular epimastigotes, Tulahuen strain; type: cell-based, Trypanosoma cruzi; details: for IC50: Trypanosoma cruzi, TULAHUEN, 48 h + 24 h resazurin, read-out: Activity IC50, epimastigote form, Tulahuen strain; for Selectivity index (SI), epimastigotes, Tulahuen strain: IC50 Vero cells/IC50 epimastigotes
# Vero cells = assay: Cytotoxicity test on Vero cells; type: cell-based; details: Chlorocebus sabaeus, 48 h + 24 h resazurin, read-out: Toxicity IC50 Vero cell
# [3] = test system: T. cruzi epimastigotes, Arequipa strain; assay: Screening against extracellular epimastigotes, Arequipa strain; type: cell-based, Trypanosoma cruzi; details: for IC50: Trypanosoma cruzi, 48 h + 24 h resazurin, read-out: Activity IC50, epimastigote form, Arequipa strain; for Selectivity index (SI), epimastigotes, Arequipa strain: IC50 Vero cells/IC50 epimastigotes
# [4] = test system: T. cruzi trypomastigotes, Arequipa strain; assay: Screening against bloodstream trypomastigotes, Arequipa strain; type: cell-based, Trypanosoma cruzi; details: for selectivity index (SI), Arequipa strain, trypom. forms: IC50 Vero cells/IC50 trypomastigotes; for IC50: Trypanosoma cruzi, bloodstream trypomastigotes, 24 h + 4 h resazurin, read-out: activity IC50, Arequipa strain, trypom. forms
# [5] = test system: T. cruzi amastigotes, Arequipa strain; assay: Screening against intracellular amastigotes, Arequipa strain; type: cell-based, Trypanosoma cruzi; details: for selectivity index (SI), Arequipa strain, am. forms: IC50 Vero cells/IC50 amastigotes; for IC50: Trypanosoma cruzi, amastigotes in Vero cells, 72 h, read-out: activity IC50, Arequipa strain, am. forms
# [6] = test system: T. cruzi amastigotes, Tulahuen strain; assay: Screening against intracellular amastigotes, Tulahuen strain; type: cell-based, Trypanosoma cruzi; details: Trypanosoma cruzi, TULAHUEN; amastigotes in Vero cells, 72 h; read-out: activity IC50, Tulahuen strain, am. forms
# [7] = test system: T. cruzi trypomastigotes, Tulahuen strain; assay: Screening against bloodstream trypomastigotes, Tulahuen strain; type: cell-based, Trypanosoma cruzi; details: Trypanosoma cruzi, TULAHUEN; bloodstream trypomastigotes, 24 h + 4 h resazurin; read-out: activity IC50, Tulahuen strain, trypom. forms
# [8] = test system: T. cruzi trypomastigotes, SN3 strain; assay: Screening against bloodstream trypomastigotes, SN3 strain; type: cell-based, Trypanosoma cruzi
# [9] = test system: T. cruzi amastigotes, SN3 strain; assay: Screening against intracellular amastigotes, SN3 strain; type: cell-based, Trypanosoma cruzi
Structure (SMILES),IC50 [1] [µM],IC50 [2] [µM],CC50 (Vero cells) [µM],IC50 [3] [µM],other results
N#Cc1ccc(C(=O)Nc2ccc([Se][Se]c3ccc(NC(=O)c4ccc(C#N)cc4)cc3)cc2)cc1 [Compound 4],> 50,> 50,280 ± 34.2,> 50,
N#C[Se]c1ccc(NP(=O)(Oc2ccccc2)Oc2ccccc2)cc1 [Compound 37],30.3 ± 3.2,22.3 ± 3,< 50,20.1 ± 2.8,
O=C(/C=C/c1ccccc1)Nc1ccc([Se][Se]c2ccc(NC(=O)/C=C/c3ccccc3)cc2)cc1 [Compound 12],> 50,> 50,280 ± 24.4,> 50,
O=C(Nc1ccc([Se][Se]c2ccc(NC(=O)c3ccco3)cc2)cc1)c1ccco1 [Compound 8],> 50,> 50,1250 ± 97.7,> 50,
N#C[Se]c1ccc(NC(=O)c2cccs2)cc1 [Compound 29],8.9 ± 1.1,6.6 ± 0.4,60.9 ± 8.7,5.4 ± 0.8,"Selectivity index (SI), epimastigotes, SN3 strain [1]: 7; selectivity index (SI), Arequipa strain, trypom. forms [4]: 5; IC50 [4]: 12.7 ± 1.2 µM; selectivity index (SI), Arequipa strain, am. forms [5]: 4; IC50 [5]: 15.4 ± 2 µM; Selectivity index (SI), epimastigotes, Tulahuen strain [2]: 9; Selectivity index (SI), epimastigotes, Arequipa strain [3]: 11"
N#C[Se]c1ccc(NC(=O)c2ccc(C#N)cc2)cc1 [Compound 24],9.8 ± 1.2,15.4 ± 2.1,70.8 ± 5.4,30.5 ± 1.9,"Selectivity index (SI), epimastigotes, SN3 strain [1]: 7; Selectivity index (SI), epimastigotes, Tulahuen strain [2]: 5; Selectivity index (SI), epimastigotes, Arequipa strain [3]: 2"
O=C(Nc1ccc([Se][Se]c2ccc(NC(=O)c3ccc(C(F)(F)F)cc3)cc2)cc1)c1ccc(C(F)(F)F)cc1 [Compound 6],> 50,> 50,536 ± 39.2,> 50,
COc1ccc(C(=O)Nc2ccc([Se]C#N)cc2)cc1 [Compound 23],4.1 ± 0.4,17.6 ± 2.5,< 50,34.5 ± 2.7,
Cc1ccc(C(=O)Nc2ccc([Se][Se]c3ccc(NC(=O)c4ccc(C)cc4)cc3)cc2)cc1 [Compound 7],> 50,> 50,341 ± 28.3,> 50,
COP(=O)(Nc1ccc([Se]C#N)cc1)OC [Compound 36],4.3 ± 0.7,18.4 ± 1.4,< 50,28.1 ± 3.2,
Cc1ccc(OP(=O)(Nc2ccc([Se][Se]c3ccc(NP(=O)(Oc4ccc(C)cc4)Oc4ccc(C)cc4)cc3)cc2)Oc2ccc(C)cc2)cc1 [Compound 20],> 50,> 50,< 50,> 50,
N#C[Se]c1ccc(NP(=O)(Nc2ccccc2)Oc2ccccc2)cc1 (centres unmarked) [Compound 40],> 50,> 50,< 50,41.1 ± 4.4,
O=C(Nc1ccc([Se][Se]c2ccc(NC(=O)c3ccc(Cl)cc3)cc2)cc1)c1ccc(Cl)cc1 [Compound 2],> 50,> 50,622 ± 41.9,> 50,
N#C[Se]c1ccc(NC(=O)c2ccccc2)cc1 [Compound 21],37.1 ± 4.6,> 50,< 50,> 50,
COc1ccc(C(=O)Nc2ccc([Se][Se]c3ccc(NC(=O)c4ccc(OC)cc4)cc3)cc2)cc1 [Compound 3],> 50,> 50,252 ± 21.6,> 50,
O=C(Nc1ccc([Se][Se]c2ccc(NC(=O)c3cccc4ccccc34)cc2)cc1)c1cccc2ccccc12 [Compound 13],> 50,> 50,98.2 ± 12.8,> 50,
O=C(Nc1ccc([Se][Se]c2ccc(NC(=O)c3ccc([N+](=O)[O-])cc3)cc2)cc1)c1ccc([N+](=O)[O-])cc1 [Compound 5],> 50,> 50,552 ± 43.1,> 50,
N#C[Se]c1ccc(NC(=O)/C=C/c2ccccc2)cc1 [Compound 32],4.8 ± 0.8,7.9 ± 0.5,< 50,7.4 ± 0.9,
O=C(Nc1ccc([Se][Se]c2ccc(NC(=O)c3ccno3)cc2)cc1)c1ccno1 [Compound 10],> 50,> 50,212 ± 18.7,> 50,

Structure (SMILES),IC50 [1] [µM],IC50 [2] [µM],CC50 (Vero cells) [µM],IC50 [3] [µM],other results
N#C[Se]c1ccc(NC(=O)c2ccc(Cl)cc2)cc1 [Compound 22],5.4 ± 0.7,19.4 ± 1.4,< 50,36.2 ± 2.8,
O=C(Nc1ccc([Se][Se]c2ccc(NC(=O)c3cccs3)cc2)cc1)c1cccs1 [Compound 9],48 ± 6.4,> 50,< 50,> 50,
COP(=O)(Nc1ccc([Se][Se]c2ccc(NP(=O)(OC)OC)cc2)cc1)OC [Compound 15],12.5 ± 1.1,14.4 ± 1.7,< 50,19.6 ± 2,
N#C[Se]c1ccc(NC(=O)c2ccno2)cc1 [Compound 30],24.1 ± 2.3,15.3 ± 1.1,86 ± 6.7,9.8 ± 1,"Selectivity index (SI), epimastigotes, SN3 strain [1]: 4; Selectivity index (SI), epimastigotes, Tulahuen strain [2]: 6; Selectivity index (SI), epimastigotes, Arequipa strain [3]: 9"
Cc1ccc(OP(=O)(Nc2ccc([Se]C#N)cc2)Oc2ccc(C)cc2)cc1 [Compound 41],43.2 ± 5.3,29.9 ± 2.1,< 50,> 50,
CSc1ccc(C(=O)Nc2ccc([Se][Se]c3ccc(NC(=O)c4ccc(SC)cc4)cc3)cc2)cc1 [Compound 14],> 50,> 50,407 ± 17.8,> 50,
N#C[Se]c1ccc(NC(=O)C23CC4CC(CC(C4)C2)C3)cc1 [Compound 31],12.5 ± 1.6,8.1 ± 0.9,< 50,4.6 ± 0.5,
N#C[Se]c1ccc(NC(=O)c2ccc([N+](=O)[O-])cc2)cc1 [Compound 25],> 50,25.3 ± 4.1,516 ± 42.2,26.3 ± 2.1,"IC50 [6]: > 50 µM; IC50 [7]: 42.2 ± 3.9 µM; selectivity index (SI), Arequipa strain, trypom. forms [4]: 14; IC50 [4]: 35.8 ± 5.8 µM; selectivity index (SI), Arequipa strain, am. forms [5]: 10; IC50 [5]: 49.3 ± 4.1 µM; Selectivity index (SI), epimastigotes, Tulahuen strain [2]: 20; Selectivity index (SI), epimastigotes, Arequipa strain [3]: 20"
O=P(Nc1ccccc1)(Nc1ccc([Se][Se]c2ccc(NP(=O)(Nc3ccccc3)Oc3ccccc3)cc2)cc1)Oc1ccccc1 (centres unmarked) [Compound 19],> 50,> 50,< 50,> 50,
Cc1ccc(C(=O)Nc2ccc([Se]C#N)cc2)cc1 [Compound 27],4.2 ± 0.3,4.9 ± 0.3,< 50,4.5 ± 0.7,
O=C(Nc1ccc([Se][Se]c2ccc(NC(=O)c3ccccc3)cc2)cc1)c1ccccc1 [Compound 1],> 50,> 50,800 ± 44,> 50,
O=P(Nc1ccc([Se][Se]c2ccc(NP(=O)(Oc3ccccc3)Oc3ccccc3)cc2)cc1)(Oc1ccccc1)Oc1ccccc1 [Compound 16],> 50,> 50,147 ± 11.4,> 50,
CCOP(=O)(Nc1ccc([Se][Se]c2ccc(NP(=O)(OCC)OCC)cc2)cc1)OCC [Compound 17],> 50,> 50,183 ± 20,> 50,
CCOP(=S)(Nc1ccc([Se][Se]c2ccc(NP(=S)(OCC)OCC)cc2)cc1)OCC [Compound 18],> 50,> 50,182 ± 14.3,> 50,
O=C(Nc1ccc([Se][Se]c2ccc(NC(=O)C34CC5CC(CC(C5)C3)C4)cc2)cc1)C12CC3CC(CC(C3)C1)C2 [Compound 11],> 50,> 50,226 ± 19.1,> 50,
N#C[Se]c1ccc(NC(=O)c2cccc3ccccc23)cc1 [Compound 33],4.8 ± 0.6,10.8 ± 1.2,52.7 ± 4.9,9.4 ± 1.2,"Selectivity index (SI), epimastigotes, SN3 strain [1]: 11; selectivity index (SI), SN3 strain, trypom. forms ([8]; IC50 Vero cells/IC50 trypomastigotes): 4; IC50 ([8]; Trypanosoma cruzi, bloodstream trypomastigotes, 24 h + 4 h resazurin, read-out: activity IC50, SN3 strain, trypom. forms): 14.1 ± 1.1 µM; selectivity index (SI), SN3 strain, am. forms ([9]; IC50 Vero cells/IC50 amastigotes): 3; IC50 ([9]; Trypanosoma cruzi, amastigotes in Vero cells, 72 h, read-out: activity IC50, SN3 strain, am. forms): 16.9 ± 1.4 µM; Selectivity index (SI), epimastigotes, Tulahuen strain [2]: 5; Selectivity index (SI), epimastigotes, Arequipa strain [3]: 6"
CCOP(=O)(Nc1ccc([Se]C#N)cc1)OCC [Compound 38],> 50,> 50,< 50,> 50,
CSc1ccc(C(=O)Nc2ccc([Se]C#N)cc2)cc1 [Compound 34],21 ± 2.7,29.1 ± 3.1,72.6 ± 9.9,16.4 ± 2,"Selectivity index (SI), epimastigotes, SN3 strain [1]: 3; Selectivity index (SI), epimastigotes, Tulahuen strain [2]: 2; Selectivity index (SI), epimastigotes, Arequipa strain [3]: 4"
